According to PubChem BioAssay (NCI):
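Growth conditions: 96-well plates. Treatment: test compound, 48 hours, 5 concentrations. Analysis: linear interpolation between bracketing concentrations; unreached endpoints set to highest concentration. TGI denotes the concentration required for complete inhibition of growth.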

Legend:
Assay in all cases: growth of human tumour cells (NCI), 48 h
[1] = system: NCI/ADR-RES ovarian
[2] = system: MCF7 breast
[3] = system: HOP-62 NSCLC
[4] = system: HCC-2998 colon
[5] = system: SNB-19 CNS
[6] = system: MOLT-4 leukemia
[7] = system: TK-10 renal
[8] = system: MDA-MB-231 breast
[9] = system: HCT-15 colon
[10] = system: CCRF-CEM leukemia
[11] = system: SK-MEL-5 melanoma
[12] = system: UO-31 renal
[13] = system: T-47D breast
[14] = system: UACC-62 melanoma
[15] = system: A549 NSCLC
[16] = system: IGROV1 ovarian
[17] = system: CAKI-1 renal
[18] = system: HCT-116 colon
[19] = system: SN12C renal
[20] = system: RPMI-8226 leukemia
[21] = system: SW-620 colon
[22] = system: DU-145 prostate
[23] = system: OVCAR-3 ovarian
[24] = system: OVCAR-8 ovarian
[25] = system: COLO 205 colon
[26] = system: SF-268 CNS
[27] = system: PC-3 prostate
[28] = system: HL-60(TB) leukemia
[29] = system: BT-549 breast
[30] = system: SF-539 CNS
[31] = system: HS 578T breast
[32] = system: HOP-92 NSCLC
[33] = system: NCI-H522 lung
[34] = system: M14 melanoma
[35] = system: MDA-MB-435
[36] = system: NCI-H460 lung
[37] = system: NCI-H23 lung
[38] = system: ACHN renal
[39] = system: SF-295 CNS
[40] = system: UACC-257 melanoma
[41] = system: KM12 colon
[42] = system: EKVX NSCLC
[43] = system: LOX IMVI melanoma
[44] = system: OVCAR-5 ovarian
[45] = system: SK-MEL-28 melanoma
[46] = system: U251 CNS
[47] = system: SR leukemia
[48] = system: HT29 colon
[49] = system: SK-MEL-2 melanoma
[50] = system: MDA-N
[51] = system: OVCAR-4 ovarian
[52] = system: 786-0 renal
[53] = system: SNB-75 CNS
[54] = system: MALME-3M melanoma
[55] = system: NCI-H226 lung
[56] = system: A498 renal
[57] = system: K-562 leukemia

In the case of `COCC[N+](CCNC(=O)c1cccc2c(N)c3cccc(C)c3nc12)(CCOC)Cc1ccc([N+](=O)[O-])cc1`, the TGI [1] is reported as greater than 100 µM, the TGI [2] is reported as 89.8 µM and the TGI [3] is reported as greater than 100 µM. The TGI [4] was 27.2 µM, the TGI [5] was greater than 100 µM and the TGI [6] was 39.2 µM. For the same compound, the TGI [7] was greater than 100 µM, the TGI [8] was 58.8 µM and the TGI [9] was greater than 100 µM. The TGI [10] was 58.1 µM, the TGI [11] was 22.9 µM and the TGI [12] was greater than 100 µM. For the same compound, the TGI [13] was 37.3 µM, the TGI [14] was 42.5 µM and the TGI [15] was greater than 100 µM. For the same compound, the TGI [16] was 33.5 µM, the TGI [17] was greater than 100 µM and the TGI [18] was 58 µM. The TGI [19] was greater than 100 µM, the TGI [20] was 27.2 µM and the TGI [21] was greater than 100 µM. For the same compound, the TGI [22] was 59.1 µM, the TGI [23] was 99.1 µM and the TGI [24] was greater than 100 µM. For the same compound, the TGI [25] was 43 µM, the TGI [26] was 87.5 µM and the TGI [27] was greater than 100 µM. It also gave a TGI [28] of 40.1 µM, a TGI [29] of 64.5 µM and a TGI [30] of 56.7 µM. The TGI [31] was 39.3 µM, the TGI [32] was 94.6 µM and the TGI [33] was 36.3 µM. It also gave a TGI [34] greater than 100 µM, a TGI [35] of 83.4 µM and a TGI [36] of 29.5 µM. For the same compound, the TGI [37] was greater than 100 µM, the TGI [38] was greater than 100 µM and the TGI [39] was greater than 100 µM. It also gave a TGI [40] of 46 µM, a TGI [41] of 30.9 µM and a TGI [42] of 67.3 µM. It also gave a TGI [43] of 81.5 µM, a TGI [44] greater than 100 µM and a TGI [45] of 52 µM. The TGI [46] was greater than 100 µM, the TGI [47] was 35.3 µM and the TGI [48] was 76.5 µM. It also gave a TGI [49] greater than 100 µM, a TGI [50] greater than 100 µM and a TGI [51] greater than 100 µM. It also gave a TGI [52] greater than 100 µM and a TGI [53] of 61.7 µM.

`Cn1c(=O)cc(NNc2ccc(Br)cc2)[nH]c1=O` gave a TGI [1] greater than 100 µM, a TGI [2] of 26.8 µM and a TGI [3] of 29.5 µM. For the same compound, the TGI [4] was 13.9 µM, the TGI [5] was 26.5 µM and the TGI [7] was 34.9 µM. The TGI [8] was 27.7 µM, the TGI [9] was 19.6 µM and the TGI [10] was greater than 100 µM. It also gave a TGI [11] of 30.2 µM, a TGI [12] of 30 µM and a TGI [15] of 29.8 µM. It also gave a TGI [16] of 23.1 µM, a TGI [18] of 29.3 µM and a TGI [54] of 31.4 µM. For the same compound, the TGI [19] was 22.6 µM, the TGI [20] was 46 µM and the TGI [21] was 15.6 µM. The TGI [22] was 19.3 µM, the TGI [23] was 14.7 µM and the TGI [24] was 41.4 µM. The TGI [25] was 13.7 µM, the TGI [27] was 22.1 µM and the TGI [28] was 7.14 µM. It also gave a TGI [29] of 30.6 µM, a TGI [30] of 8.14 µM and a TGI [31] of 9.34 µM. The TGI [32] was 27.7 µM, the TGI [34] was 33.4 µM and the TGI [35] was 25.3 µM. The TGI [36] was 19.3 µM, the TGI [38] was 29.9 µM and the TGI [39] was 26.2 µM. The TGI [40] was 29.1 µM, the TGI [41] was 10.4 µM and the TGI [55] was 39.1 µM. The TGI [42] was 37.5 µM, the TGI [43] was 4.13 µM and the TGI [56] was greater than 100 µM. It also gave a TGI [44] of 26.2 µM, a TGI [45] of 34.7 µM and a TGI [46] of 10 µM. For the same compound, the TGI [47] was greater than 100 µM, the TGI [48] was 12.2 µM and the TGI [50] was 28.6 µM. The TGI [57] was greater than 100 µM, the TGI [51] was 30.3 µM and the TGI [52] was 21.4 µM.
